Laboratory results taken from patent publication US9732111B2, “2′-alkynyl substituted nucleoside derivatives and methods of use thereof for the treatment of viral diseases” (Merck Sharp & Dohme Corp., priority 2012, dated 2017).
Read-outs that look alike come from different tables or passages of the source.

Tests used:
[1] = molecular target: T1, HCV NS5B RNA-dependent RNA polymerase (1b-BKΔ55) (Hepatitis C virus genotype 1b, UniProt P26663); test: Inhibition of HCV NS5B polymerase by nucleoside triphosphate analogs (radiolabeled nucleotide incorporation assay); format: biochemical
T1 construct: 5 nM NS5B (1b-BKΔ55) enzyme
Method: To measure inhibition of the enzymatic activity of the HCV NS5B RNA-dependent RNA polymerase by the nucleoside triphosphate compounds of the present invention, a radiolabeled nucleotide incorporation assay was used. This assay is a modified version of the assay described in International Publication No. WO2002/057287. Briefly, 50 μL reactions containing 20 mM HEPES (pH 7.3); 7.5 mM DTT; 20 units/mL RNasIN; 1 μM each of ATP, GTP, UTP and CTP; 20 μCi/mL [^33P]-CTP; 10 mM MgCl; 60 mM NaCl; 100 μg/mL BSA; 0.021 μM DCoH heteropolymer RNA template; and 5 nM NS5B (1b-BKΔ55) enzyme are incubated at room temperature for 1 hour. The assay is then terminated by the addition of 500 mM EDTA (50 μL). The reaction mixture is transferred to a Millipore DE81 filter plate and the incorporation of labeled CTP is determined using Packard TopCount. Compound IC50 values can then be calculated from experiments with 10 serial 3-fold dilutions of the inhibitor in duplicate. The intrinsic potency (Ki) of an NTP inhibitor is derived from its NS5B IC50 using the Cheng-Prusoff equation for a competitive inhibitor, as described in Cheng et al., Biochem Pharmacol 22:3099-3108 (1973): Ki=IC50/(1+[S]/Km), where [S]=1 μM, and Km is the concentration of cognate NTP yielding half-maximal enzyme activity in the assay absent exogenous inhibitors.
Data was obtained using this method for the NTP analogs of selected compounds below of the present invention, and is set forth below.

[2] = tested on: HCV replicon cells (1b-Con1); test: Replicon activity assay (replicon RNA level by real-time RT-PCR); format: cell-based; details: Hepatitis C virus, 72 h, read-out: Replicon (1b) EC50
[3] = tested on: replicon cells (1b-Con1); test: Cytotoxicity in replicon cells (MTS assay); details: CC50, MTS assay, three days post dosing

T1 sequence (P26663 2420-2955, stated change not applied): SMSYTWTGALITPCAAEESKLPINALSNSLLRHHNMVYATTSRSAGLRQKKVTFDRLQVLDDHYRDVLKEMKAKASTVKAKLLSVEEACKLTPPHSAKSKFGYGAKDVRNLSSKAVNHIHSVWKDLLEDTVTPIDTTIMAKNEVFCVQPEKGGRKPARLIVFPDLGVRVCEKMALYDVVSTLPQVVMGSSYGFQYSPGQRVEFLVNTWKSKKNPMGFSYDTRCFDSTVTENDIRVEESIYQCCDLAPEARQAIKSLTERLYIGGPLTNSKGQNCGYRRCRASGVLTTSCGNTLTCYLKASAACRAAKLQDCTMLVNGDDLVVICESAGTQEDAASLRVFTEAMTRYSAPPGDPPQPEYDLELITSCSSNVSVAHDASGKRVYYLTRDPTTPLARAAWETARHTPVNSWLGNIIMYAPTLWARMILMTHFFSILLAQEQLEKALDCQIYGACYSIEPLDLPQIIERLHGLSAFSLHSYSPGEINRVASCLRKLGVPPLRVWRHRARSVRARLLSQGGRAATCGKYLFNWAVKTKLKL

C#C[C@@]1(O)[C@H](O)[C@@H](COP(=O)(O)OP(=O)(O)OP(=O)(O)O)O[C@H]1n1ccc(=O)[nH]c1=O gave a Ki [1] of 36 nM.

C#C[C@]1(O)[C@H](O)[C@@H](COP(=O)(O)OP(=O)(O)OP(=O)(O)O)O[C@H]1n1ccc(=O)[nH]c1=O gave a Ki [1] of roughly 19000 nM.

CC#C[C@@]1(O)[C@H](O)[C@@H](COP(=O)(O)OP(=O)(O)OP(=O)(O)O)O[C@H]1n1ccc(=O)[nH]c1=O showed a Ki [1] of 58 nM.

CC#C[C@]1(O)[C@H](O)[C@@H](COP(=O)(O)OP(=O)(O)OP(=O)(O)O)O[C@H]1n1ccc(=O)[nH]c1=O was tested, and the Ki [1] was roughly 12000 nM.

With C#C[C@@]1(N)[C@H](O)[C@@H](COP(=O)(O)OP(=O)(O)OP(=O)(O)O)O[C@H]1n1ccc(=O)[nH]c1=O the Ki [1] was 1200 nM.

In the case of CC(C)OC(=O)[C@H](C)NP(=O)(OC[C@H]1O[C@@H](n2ccc(=O)[nH]c2=O)[C@@](O)(C#CC(F)(F)F)[C@@H]1O)Oc1ccccc1 (stereo partly shown), the EC50 [2] is reported as 25200 nM and the Cytotoxicity [3] is reported as 40.7 µM.

Work on CC(C)OC(=O)[C@H](C)NP(=O)(OC[C@H]1O[C@@H](n2ccc(=O)[nH]c2=O)[C@@](O)(C#CC2CC2)[C@@H]1O)Oc1ccccc1 (stereo partly shown) yielded an EC50 [2] of 1100 nM and a Cytotoxicity [3] of 14.2 µM.

In the case of CC#C[C@@]1(F)[C@H](O)[C@@H](COP(=O)(N[C@@H](C)C(=O)OC(C)C)Oc2ccccc2)O[C@H]1n1ccc(=O)[nH]c1=O (stereo partly shown), the EC50 [2] is reported as 45700 nM and the Cytotoxicity [3] is reported as 74.4 µM.

C#C[C@@]1(O)[C@H](O)[C@@H](COP(=O)(N[C@@H](C)C(=O)OC(C)C)Oc2ccccc2)O[C@H]1n1ccc(=O)[nH]c1=O (single isomer, unassigned) showed an EC50 [2] of 90 nM and a Cytotoxicity [3] greater than 100 µM.

Molecule C#C[C@@]1(O)[C@H](OC(=O)C(C)C)[C@@H](COP(=O)(N[C@@H](C)C(=O)OC(C)C)Oc2ccccc2)O[C@H]1n1ccc(=O)[nH]c1=O (single isomer, unassigned) has an EC50 [2] of 100 nM and a Cytotoxicity [3] greater than 100 µM.

C#C[C@@]1(O)[C@@H]2OP(=O)(OC(C)C)OC[C@H]2O[C@H]1n1ccc(=O)[nH]c1=O (single isomer, unassigned) showed an EC50 ([2]; 1b-Con1 replicon cells, three days post-dosing) of 21000 nM and a Cytotoxicity [3] greater than 100 µM.

Molecule CC#C[C@]1(O)[C@H](O)[C@@H](COP(=O)(N[C@@H](C)C(=O)OC(C)C)Oc2ccccc2)O[C@H]1n1ccc(=O)[nH]c1=O (single isomer, unassigned) has an EC50 [2] of 940 nM and a Cytotoxicity [3] greater than 100 µM.
